Source: US6261760A, “Regulation of the cell cycle by sterols” (priority 1999, dated 2001)
Entries after “also recorded” stand apart in the source; their conditions may differ. *1 amine or outer side, *2 acyl side, *3 side chain or, on linkers, in order; H or OH if unused. Where a SMILES comes first, the peptide text is derived from it. Bridges are numbered along the chain shown (N, C = ends). Roman numbers before positions name the chains, in order. [ ]: non-standard residue; d: D form. Actinocin(9to1) = Cc1c2oc3c(C)ccc(C(=O)[*:1])c3nc-2c(C(=O)[*:2])c(N)c1=O; NMeV = CN[C@H](C(=O)O)C(C)C; Nle = CCCC[C@H](N)C(=O)O; Sar = CNCC(=O)O

What was measured:
[1] = system: LDL FC uptake by fibroblast monolayers; test: Transfer of LDL-derived 3H-FC into fibroblast monolayers with metabolic inhibitors (Example 2); format: cell-based, human; set-up: Emax: dose or concentration left out as unconfirmed; settings: for effect on uptake of 3H-FC from LDL: brefeldin A, vinblastine, taxol, nocodazole, NEM 2 mM; for inhibition at higher concentration: 100 mM (monensin: up to 100 mM)
[2] = system: intracellular FC transport to the cell surface in fibroblast monolayers; test: Transfer of intracellular 3H-FC to the cell surface (cholesterol oxidase); format: cell-based, human; settings: in words
Method: This assay utilized the finding (see Example 1) that only FC in the caveolar fraction of the plasma membrane fraction was modified by cholesterol oxidase in unfixed fibroblast monolayers.
The rate at which intracellular LDL-derived ^3 H-FC became accessible at the cell surface was measured as follows. Cell monolayers were labeled with ^3 H-FC LDL under the conditions shown for each experiment. Unbound and adsorbed LDL were removed as described above. In some experiments metabolic inhibitors of different transport steps were then added for 30 min at 15° C. […] Cholesterol oxidase (Boehringer-Manheim, Indianapolis, Ind., USA) was added in PBS to a final concentration of 1 U ml^-1. Incubation was for 4 h at 0° C. The cells were washed with ice-cold PBS, and extracted with 0.1 N NAOH. Cell total lipid was extracted with chloroform-methanol (1:1 v/v). […] .
Fibroblast monolayers were prelabeled with FC-labeled LDL for 2 min at 31° C. Medium and surface-bound labeled LDL were removed as described above. The cells were incubated with inhibitors of intracellular transport for 30 min at 15° C. Movement of FC label to the cell surface remained negligible (FIG. 11). The cells were brought to 31° C. for 15 min, and then cooled on wet ice. ^3 H-FC transfer to the cell surface (in the presence and absence of inhibitor) was assayed with cholesterol oxidase as described above.

caveolin mRNA = test: Caveolin mRNA levels (Northern blot)
[3] = system: LDL FC uptake by fibroblast monolayers; test: Effects of metabolic inhibitors on uptake of 3H-cholesterol from LDL (Example 1); settings: in words

## C[C@H]1CCC/C=C/[C@@H]2C[C@H](O)C[C@H]2[C@H](O)/C=C/C(=O)O1 [Brefeldin A]
[1]
  effect on uptake of 3H-FC from LDL: without effect
[2]
  effect on transport of intracellular 3H-FC to the cell surface: unaffected

## COC(=O)Nc1nc2ccc(C(=O)c3cccs3)cc2[nH]1 [Nocodazole]
[1]
  effect on uptake of 3H-FC from LDL: without effect
[2]
  effect on transport of intracellular 3H-FC to the cell surface: reduced

## CCCC[C@@H](C=O)NC(=O)[C@H](CC(C)C)NC(=O)[C@H](CC(C)C)NC(C)=O [ALLN] (Ac-Leu-Leu-[Nle]-aldehyde)
Caveolin mRNA; 25 μM ALLN, 7% or 80% v/v plasma
  effect on caveolin mRNA levels / caveolin gene expression: superinhibited caveolin mRNA levels regardless of LDL-FC; also recorded: superinhibited the expression of the caveolin gene; also recorded: strongly inhibited caveolin mRNA levels even below the level expressed in cells equilibrated in 7% v/v plasma; also recorded: completely prevented the activation of caveolin mRNA levels observed in 80% v/v plasma

## Cc1c2oc3c(C)ccc(C(=O)N[C@@H]4C(=O)N[C@H](C(C)C)C(=O)N5CCC[C@H]5C(=O)N(C)CC(=O)N(C)[C@@H](C(C)C)C(=O)O[C@@H]4C)c3nc-2c(C(=O)N[C@@H]2C(=O)N[C@H](C(C)C)C(=O)N3CCC[C@H]3C(=O)N(C)CC(=O)N(C)[C@@H](C(C)C)C(=O)O[C@@H]2C)c(N)c1=O [actinomycin, actinomycin D] (I: T[dV]P[Sar][NMeV] / II: T[dV]P[Sar][NMeV]; ester I:1-I:C, II:1-II:C; linker I:N-II:N via Actinocin(9to1))
Caveolin mRNA; actinomycin 2.5 μg ml^-1, activated and baseline cells, n=4
  t1/2 of decrease in caveolin mRNA levels: 8.0 ± 1 h
Caveolin mRNA; baseline cells, 8 h with actinomycin, 37° C.
  caveolin mRNA level relative to total RNA: 0.52

## COC1=CC(C)=CC(C)C(O)C(C)CC(C)=CC=CC(OC)C(C(C)C(O)C(C)C2(O)CC(O)C(C)C(C(C)C)O2)OC1=O (single isomer, unassigned) [Bafilomycin A1]
[1]; Homo sapiens, Fibroblast, read-out: maximal effect on LDL-FC uptake
  Emax: 30%

## CCN(CC)CCCC(C)Nc1ccnc2cc(Cl)ccc12 (centres unmarked) [Chloroquine]
[3]
  effect on LDL FC uptake: no effect

## C=C1C(C)C2C(Cc3ccccc3)NC(=O)C23C(OC(C)=O)/C=C/C(C)(O)C(=O)C(C)CC=CC3C1O (centres unmarked) [Cytochalasin D]
[1]; listed as Cytochalasin
  inhibition at higher concentration: No greater inhibition
[1]; listed as cytochalasin D
  inhibition at higher concentration: no increase in inhibition
[2]
  effect on transport of intracellular 3H-FC to the cell surface: no effect

## [NH4+].[O]=[V](=[O])[O-] [NH4 -vanadate]
[3]
  effect on LDL FC uptake: without effect

## CC[C@]1(O)C[C@@H]2CN(CCc3c([nH]c4ccccc34)[C@@](C(=O)OC)(c3cc4c(cc3OC)N(C)[C@H]3[C@@](O)(C(=O)OC)[C@H](OC(C)=O)[C@]5(CC)C=CCN6CC[C@]43[C@@H]65)C2)C1 [Vinblastine]
[1]
  effect on uptake of 3H-FC from LDL: without effect
[2]
  effect on transport of intracellular 3H-FC to the cell surface: unaffected

## [N-]=[N+]=[N-].[Na+] [Na-azide]
[3]
  effect on LDL FC uptake: without effect

## CC(=O)O[C@H]1C(=O)[C@@]2(C)[C@H]([C@H](OC(=O)c3ccccc3)[C@]3(O)C[C@H](OC(=O)[C@H](O)[C@@H](NC(=O)c4ccccc4)c4ccccc4)C(C)=C1C3(C)C)[C@]1(OC(C)=O)CO[C@@H]1C[C@@H]2O [taxol]
[1]
  effect on uptake of 3H-FC from LDL: without effect
